Source: publication PMC10583824, “The rational design of ARUK2007145, a dual inhibitor of the α and γ isoforms of the lipid kinase phosphatidylinositol 5-phosphate 4-kinase (PI5P4K)” (RSC Medicinal Chemistry, 2023)
≈ marks a conversion by molar mass, not a printed value.

How the values were obtained:
[1] = Turbidimetric aqueous solubility; type: physicochemical; conditions: pH 7.4, turbidimetric
Description: (§1) ADMET experimental methods […]
Turbidimetric aqueous solubility: analysis was performed by Cyprotex Discovery. Compound in DMSO at 10 mM was serially diluted to solutions of 0.1, 0.3, 1 and 3 mM in DMSO, then further diluted 1 in 100 in buffer (0.01 M PBS, pH 7.4, 1% DMSO final). 7 replicate wells of each dilution were equilibrated for 2 hours at 37 °C before absorbance is measured at 620 nm. The solubility is estimated from the concentration of test compound that produces an increase in absorbance above vehicle control (1% DMSO in buffer). […]

MDCK-MDR1 cells = assay: MDR1-MDCK bi-directional permeability and efflux; conditions: MDCK-MDR1 cells; A2B; 10 µM
Description: MDR1-MDCK Permeability (bi-directional): was performed by Cyprotex Discovery. Briefly, compounds were administered at 10 µM (1% DMSO final) to the apical or basolateral side of a confluent monolayer of MDR1-MDCK cells, then incubated at 37 °C for 60 minutes before appearance on the opposite side of the monolayer was determined LC-MS/MS. The efflux ratio (ER) is calculated from the ratio of B-A to A-B permeabilities.

PI5P4Kγ+ [2] = conditions: ratio PI5P4Kα IC50 / PI5P4Kγ+ IC50, ADP-Glo
PI5P4Kα [3] = target: T1, PI5P4Kα (Homo sapiens, UniProt P48426); assay: biochemical
T1 sequence (P48426 1-406): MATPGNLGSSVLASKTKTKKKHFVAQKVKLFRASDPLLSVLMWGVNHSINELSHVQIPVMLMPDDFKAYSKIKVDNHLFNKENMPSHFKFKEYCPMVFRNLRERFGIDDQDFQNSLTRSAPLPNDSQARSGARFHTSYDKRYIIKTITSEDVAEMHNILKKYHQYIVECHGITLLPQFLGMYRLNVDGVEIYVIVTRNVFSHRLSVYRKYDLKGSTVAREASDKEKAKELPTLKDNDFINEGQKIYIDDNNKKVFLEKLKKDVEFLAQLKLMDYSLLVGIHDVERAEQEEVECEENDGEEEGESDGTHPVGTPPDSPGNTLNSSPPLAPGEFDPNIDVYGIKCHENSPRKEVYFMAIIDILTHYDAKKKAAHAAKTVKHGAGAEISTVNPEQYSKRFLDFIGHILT

PI5P4Kγ+ [4] = target: T2, PI5P4Kγ+ (Homo sapiens, UniProt Q8TBX8, D138G/D197E/E133P/E135D/E153T/E196G/G139A/N195G/S132L/S134N); assay: biochemical
T2 sequence (Q8TBX8 with tags, fused parts or gaps INS131LPN/S132D/E133S/S134Q/E135A/G136R/D138G/G139A/E153T/N195G/E196G/D197E): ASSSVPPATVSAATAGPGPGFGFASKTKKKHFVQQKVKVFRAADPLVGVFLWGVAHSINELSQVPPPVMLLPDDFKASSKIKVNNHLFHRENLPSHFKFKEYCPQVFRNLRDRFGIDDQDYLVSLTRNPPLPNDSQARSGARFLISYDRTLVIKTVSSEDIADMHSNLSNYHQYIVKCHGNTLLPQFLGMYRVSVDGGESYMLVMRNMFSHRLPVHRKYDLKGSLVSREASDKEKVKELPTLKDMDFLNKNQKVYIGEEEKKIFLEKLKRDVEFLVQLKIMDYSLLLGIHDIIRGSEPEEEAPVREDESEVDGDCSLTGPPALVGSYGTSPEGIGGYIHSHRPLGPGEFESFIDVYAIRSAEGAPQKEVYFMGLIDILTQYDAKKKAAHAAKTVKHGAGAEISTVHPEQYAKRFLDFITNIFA

PI5P4Kα [5] = target: T1, PI5P4Kα; conditions: for PI5P4Kα pIC50: ADP-Glo, footnote a: inconsistent replicates, value shown is upper limit; for ADP-Glo pIC50 PI5P4Kα: Table S1, two decimals, asterisk not explained
PI5P4Kβ = target: T3, PI5P4Kβ (Homo sapiens, UniProt P78356); assay: PI5P4Kβ ADP-Glo kinase assay
T3 sequence (P78356 1-416): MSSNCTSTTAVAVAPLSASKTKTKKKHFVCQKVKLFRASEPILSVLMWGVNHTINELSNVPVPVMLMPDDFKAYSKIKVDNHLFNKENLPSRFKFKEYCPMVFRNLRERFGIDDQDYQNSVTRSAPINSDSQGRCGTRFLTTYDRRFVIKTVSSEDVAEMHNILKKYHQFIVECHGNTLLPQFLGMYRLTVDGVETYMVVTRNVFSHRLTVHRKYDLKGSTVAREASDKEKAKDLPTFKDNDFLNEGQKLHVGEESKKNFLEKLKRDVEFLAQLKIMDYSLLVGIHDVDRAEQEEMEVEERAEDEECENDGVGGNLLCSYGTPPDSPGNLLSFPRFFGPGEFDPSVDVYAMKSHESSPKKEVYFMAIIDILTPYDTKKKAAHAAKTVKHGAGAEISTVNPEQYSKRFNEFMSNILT

PI5P4Kγ-WT = target: T4, PI5P4Kγ-WT (Homo sapiens, UniProt Q8TBX8); assay: InCELL Pulse cellular target engagement (thermal stabilisation) assay; conditions: Hek293 cells stably expressing ePL-tagged PI5P4Kγ
T4 sequence (Q8TBX8 1-421): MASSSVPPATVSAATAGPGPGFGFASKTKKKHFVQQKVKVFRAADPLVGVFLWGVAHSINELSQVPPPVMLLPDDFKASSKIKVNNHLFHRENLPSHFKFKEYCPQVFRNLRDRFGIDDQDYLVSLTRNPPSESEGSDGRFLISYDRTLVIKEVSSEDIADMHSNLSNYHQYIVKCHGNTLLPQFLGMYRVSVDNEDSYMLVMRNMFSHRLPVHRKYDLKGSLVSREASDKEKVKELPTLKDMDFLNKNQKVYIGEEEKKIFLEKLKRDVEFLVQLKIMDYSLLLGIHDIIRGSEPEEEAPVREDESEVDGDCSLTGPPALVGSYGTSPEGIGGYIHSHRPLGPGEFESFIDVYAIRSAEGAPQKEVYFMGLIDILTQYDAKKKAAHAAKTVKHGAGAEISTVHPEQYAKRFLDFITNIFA

[6] = Mouse liver microsome stability; type: in vitro ADME; conditions: mouse liver microsomes half-life; read-out: MLM t½
Description: as §1
Mouse Microsomal stability: analysis was performed by Cyprotex Discovery. Briefly, test compounds in DMSO
protein/mL) in the presence of NADPH (1 mM) at 37 °C. Aliquots were taken at time intervals (0, 5, 15, 30 and
compound remaining, allowing the determination of the half-life for the compound.

[7] = ADP-Glo pIC50 PI5P4Kα, Table S1, two decimals, asterisk not explained
[8] = ADP-Glo pIC50 PI5P4Kγ+, Table S1, two decimals, asterisk not explained
[9] = PI5P4Kγ+ pIC50, ADP-Glo, footnote a: inconsistent replicates, value shown is upper limit
[10] = PI5P4Kα pIC50, ADP-Glo, footnote a: inconsistent replicates, value shown is upper limit

Structure (SMILES) | solubility at 2 h [1] | P app (A2B) (MDCK-MDR1 cells) | Fold-selectivity (α IC50/γ IC50) (PI5P4Kγ+ [2]) | IC50 (PI5P4Kα [3]; [7]) | IC50 (PI5P4Kγ+ [4]; [8]) | IC50 (PI5P4Kγ+ [4]; [9]) | PI5P4Kα pIC50 (PI5P4Kα [5]) | ADP-Glo pIC50 PI5P4Kβ (PI5P4Kβ) | InCELL Pulse pIC50 PI5P4Kγ-WT (PI5P4Kγ-WT) | half-life at 1 µM [6] | IC50 (PI5P4Kα [3]; [10]) | ADP-Glo pIC50 PI5P4Kα (PI5P4Kα [5])
CS(=O)(=O)c1ccc(Nc2ncnc3sc(-c4ccccc4)cc23)cc1 [Compound 5] | 1 µM (≈ 0.381 µg/mL) | 6.23 10^−6 cm s^−1 |  |  |  |  |  |  |  |  |  | 
CS(=O)(=O)c1ccc(Nc2ncnc3sc(-c4ccncc4)cc23)cc1 [Compound 6] |  |  | 63 | 1410 nM | 22.4 nM | 20 nM | 5.9 |  |  |  |  | 
Cn1cc(-c2cc3c(Nc4ccc(S(C)(=O)=O)cc4)ncnc3s2)cn1 [Compound 8] | 30 µM (≈ 11.6 µg/mL) | 2.88 10^−6 cm s^−1 |  |  | 36.3 nM | 39.8 nM | 5.2 | 4.9 | 6.7 | 73.3 min |  | 
CS(=O)(=O)c1ccc(Nc2ncnc3sc(-c4cccnc4)cc23)cc1 [Compound 9] |  |  | 130 | 4570 nM | 34.7 nM | 31.6 nM | 5.3 |  |  |  |  | 
Cc1cnccc1-c1cc2c(Nc3ccc(S(C)(=O)=O)cc3)ncnc2s1 [Compound 10] | 30 µM (≈ 11.9 µg/mL) | 3.13 10^−6 cm s^−1 |  | 708 nM | 12.9 nM | 12.6 nM | 6.2 | 4.9 | 7.7 | 9.23 min |  | 
COc1cnccc1-c1cc2c(Nc3ccc(S(C)(=O)=O)cc3)ncnc2s1 [Compound 11] |  |  | 79 |  | 32.4 nM | ≥ 31.6 nM |  |  |  |  | ≥ 2510 nM | 5.58
CS(=O)(=O)c1ccc(Nc2ncnc3sc(-c4ccnc(Cl)c4)cc23)cc1 [Compound 13] |  |  | 130 |  | 64.6 nM | 63.1 nM |  |  |  |  | ≥ 7940 nM | 5.08
CS(=O)(=O)c1ccc(Nc2ncnc3sc(-c4cccnc4Cl)cc23)cc1 [Compound 15] | 3 µM (≈ 1.25 µg/mL) | 4.73 10^−6 cm s^−1 |  | 708 nM | 12.9 nM | 12.6 nM | 6.2 | 4.9 | 7.1 | 383 min |  | 
Cc1ncccc1-c1cc2c(Nc3ccc(S(C)(=O)=O)cc3)ncnc2s1 [Compound 17] | 10 µM (≈ 3.96 µg/mL) | 1.33 10^−6 cm s^−1 |  | 1120 nM | 20.9 nM | 20 nM | 6.0 | 4.7 | 7.3 | 35.5 min |  | 
Cc1cccc(Nc2ncnc3sc(-c4cccnc4C)cc23)c1 [Compound 21] |  |  | 0.63 | 3550 nM | 5250 nM | 5010 nM | 5.5 |  |  |  |  | 
CSc1ccc(Nc2ncnc3sc(-c4cccnc4C)cc23)cc1 [Compound 25] |  |  | 5.0 | 282 nM | 46.8 nM | 50.1 nM | 6.6 |  |  |  |  | 
CSc1ccc(Nc2ncnc3sc(-c4ccncc4C)cc23)cc1 [Compound 26] | 3 µM (≈ 1.09 µg/mL) | 3.7 ^d 10^−6 cm s^−1 |  | 135 nM | 19.5 nM | 20 nM | 6.9 |  |  | 0.94 min |  | 
COc1ccc(Nc2ncnc3sc(-c4ccncc4C)cc23)cc1 [Compound 27] |  |  | 1.1 | 708 nM | 661 nM | 631 nM | 6.2 |  |  |  |  | 
CSc1ccc(Nc2ncnc3sc(-c4cccnc4Cl)cc23)cc1 [Compound 28] |  |  | 12 | 229 nM | 18.6 nM | 20 nM | 6.6 |  |  |  |  | 
Cc1csc2ncnc(Nc3ccc(S(C)(=O)=O)cc3)c12 [Compound 31] |  |  | >980 |  |  | 50.1 nM | <4.3 |  |  |  |  | 
CN(C(=O)c1csc2ncnc(Nc3ccc(S(C)(=O)=O)cc3)c12)c1ccccc1 [Compound 34] |  |  | 50 |  |  | 50.1 nM | 5.6 |  |  |  |  | 
Cc1sc2ncnc(Nc3ccc(S(C)(=O)=O)cc3)c2c1C [Compound 35] |  |  | >250 |  |  | 200 nM | <4.3 |  |  |  |  | 
CS(=O)(=O)c1ccc(Nc2ncnc3cc(-c4cccnc4Cl)sc23)cc1 [Compound 37] | 10 µM (≈ 4.17 µg/mL) | 1.33 10^−6 cm s^−1 |  | 355 nM | 11.7 nM | 12.6 nM | 6.5 |  | 7.4 | 70.8 min |  | 
CSc1ccc(Nc2ncnc3cc(-c4cccnc4Cl)sc23)cc1 [Compound 39] | 10 µM (≈ 3.85 µg/mL) | 12.9 10^−6 cm s^−1 |  | 46.8 nM | 8.71 nM | 7.94 nM | 7.3 |  | 7.3 | 0.44 min |  | 
Cc1ncccc1-c1cc2ncnc(Nc3ccc(S(F)(F)(F)(F)F)cc3)c2s1 [Compound 40] |  |  | 6.3 |  |  | 100 nM | 6.2 |  |  |  |  | 
Cc1ncccc1-c1cc2ncnc(Nc3ccc4ncoc4c3)c2s1 [Compound 41] |  |  | 5.9 |  | 562 nM | 501 nM | 5.5 |  |  |  |  | 5.48
Cc1ncccc1-c1cc2ncnc(Nc3ccc(N4CCCC4=O)cc3)c2s1 [Compound 42] | 10 µM (≈ 4.01 µg/mL) | 3.15 10^−6 cm s^−1 |  | 112 nM | 8.32 nM | 7.94 nM | 7.0 |  |  | 5.39 min |  | 
